According to patent US8471027B2, “Adamantyl compounds” (Hoffmann-La Roche Inc., priority 2011, dated 2013):

What was measured:
JNK1 = JNK1 (Homo sapiens, UniProt P45983); assay: In vitro JNK1 Assay (TR-FRET, phosphorylation of GST-c-Jun); type: biochemical; details: 0.2 nM JNK1, 26.7 nM GST-c-Jun, 2 μM ATP
Protocol: Phosphorylation of GST-c-Jun protein (amino acid residues 1-79) was measured as JNK1 activity. […] The reaction buffer contained 50 mM HEPES, pH 7.0, 10 mM MgCl2, 1 mM DTT, 0.1 mM Na3 VO4 and 0.2 mg/mL BSA. After 30 min. incubation at room temperature, the reaction was terminated by adding buffer containing 8 mM EDTA and a polyclonal anti-phospho-c-Jun antibody (Cell Signaling #9261L), followed by an additional incubation of 30 min. at room temperature. […] Time-resolved Fluorescence Resonance Energy Transfer (TR-FRET) signals were measured 1 hr. later on the EnVision reader (Perkin Elmer). Compound potency was assessed at 10 serially diluted concentrations. Percentage of inhibition at each concentration was determined to generate an IC50 value for each compound.

[1] = test system: phospho(Ser63)-c-jun in HK-2 cells; assay: Cell-based assay for JNK inhibitors: in-cell ELISA of TNFα-stimulated phospho(Ser63)-c-jun in HK-2 cells; details: Homo sapiens, 10 ng/mL TNFα, 60 min preincubation with compound
Protocol: Cell-Based Assay for JNK Inhibitors
The cell-based assay employed the in-cell ELISA method to determine the ability of compounds to prevent the generation of phospho(Ser63)-c-jun in HK-2 cells (human proximal tubule cells) in response to stimulation with tumor necrosis factor α (TNFα). In brief, for quantification of phospho(Ser63)-c-jun, the cells (in 96-well format) were fixed and permeablized then incubated sequentially with a rabbit anti-phospho-c-jun First Antibody specific for the presence of the phospho-Ser63 epitope and a donkey anti-rabbit IgG Second Antibody linked to horseradish peroxidase (HRP) for colorimetric quantitation of binding. For determination of non-specific binding of the First Antibody, Blank wells were preincubated with a mouse anti-phospho(Ser63)-c-jun Blocking Antibody that prevented specific binding of the First Antibody to the phospho-Ser63 epitope, but which was not recognized by the donkey anti-rabbit IgG Second Antibody. […] Blank wells received no TNFα stimulation or compound. Additional Control wells received TNFα stimulation, but no compound. The signal obtained in this case was considered the value for 0% inhibition (Control value).
Stock cultures of HK-2 cells (ATCC, Manassas, Va.) were grown under a 5% CO2/[…] atmosphere at 37 degrees C. in Keratinocyte-SFM medium (KSFM, Invitrogen, Grand Island, N.Y.) containing 5 μg/L epidermal growth factor and 5 mg/L bovine pituitary extract (both supplied with the medium), additionally supplemented with 10% (v/v) fetal calf serum (FCS; Invitrogen, Grand Island, N.Y.) and 1% (v/v) antibiotic-antimycotic (ABAM: Sigma, St. Louis, Mo.). For assays, cells were seeded in collagen coated 96-well polystyrene plates (BD Biosciences, Franklin Lakes, N.J.) at a density of 40,000 cells/well and cultured for 24 h in the same medium (100 μL/well) followed by a further 16-24 h in 100 μL of similar medium, but without FCS. […] Cells were incubated for a further 30 minutes and then the medium was aspirated and the wells washed with 100 μL/well PBS followed by the addition of 100 μL 3.7% (v/v) Formaldehyde (Fisher Scientific, Fair Lawn, N.J.) in PBS. Plates were then allowed to stand at room temperature for 20 minutes before being washed with 200 μL/well of PBS. (Further steps were performed immediately or the plates were stored at 4 degrees C. and the assay completed the next day.) To each well was added 100 μL 1% (v/v) TritonX-100 (Sigma, St. Louis, Mo.) in PBS followed by 20 minutes standing at room temperature, washing with 200 μL/well PBS, the addition of 100 μL/well of Quenching buffer (1% (v/v) hydrogen peroxide (Sigma, St. Louis, Mo.) and 0.1% (w/v) sodium azide (Fisher Scientific, Fair Lawn, N.J.)) in PBS and a further 20 minutes at room temperature. Plates were then washed twice with 200 μL/well of 0.1% (v/v) Tween-20 (Teknova, Hollister, Calif.) in PBS before addition of 200 μL/well of 2% BSA/0.10% Tween-20 in PBS and a further 1 hour at room temperature. At this time, buffer was removed from Blank wells and replaced with 90 μL/well of mouse anti-phospho-c-jun-Ser63 (BD Bioscience, 558036) diluted 1:4000 in PBS containing 1% BSA/0.1% Tween-20 (Antibody Dilution Buffer). All other wells are replaced with 90 μL/well of rabbit anti-phospho-c-jun-Ser63 (Cell Signaling, 9261) diluted 1:250 in Antibody Dilution Buffer. After a further one hour, rabbit anti-phospho-c-jun-Ser63 is added directly to the solution in the Blank wells resulting in 1:250 dilution of this antibody. Plates were then placed on a slowly rotating platform at 4 degrees C. overnight. Wells were then washed thrice with 200 μL/well PBS/0.1% Tween-20. After addition of the third wash, the plates were placed on a slowly rotating platform for 15 minutes at room temperature. […]

Sequence of JNK1 (P45983 whole entry, species assumed, the tested form may be a part): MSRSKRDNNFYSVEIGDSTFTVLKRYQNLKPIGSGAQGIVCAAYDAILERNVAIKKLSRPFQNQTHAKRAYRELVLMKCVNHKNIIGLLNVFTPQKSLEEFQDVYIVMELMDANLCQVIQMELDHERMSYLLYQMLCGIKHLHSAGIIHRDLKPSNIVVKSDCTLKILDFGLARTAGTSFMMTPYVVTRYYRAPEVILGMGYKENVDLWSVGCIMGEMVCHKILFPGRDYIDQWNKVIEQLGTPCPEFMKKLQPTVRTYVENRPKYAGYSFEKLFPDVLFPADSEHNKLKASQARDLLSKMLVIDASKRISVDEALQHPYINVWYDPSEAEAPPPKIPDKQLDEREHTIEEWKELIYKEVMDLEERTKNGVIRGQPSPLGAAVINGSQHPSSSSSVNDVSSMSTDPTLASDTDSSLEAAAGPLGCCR

Row | SMILES | IC50 (JNK1) [nM] | EC50 [1] [nM]
1 | COC(=O)c1c(Cc2ccc(C(=O)N[C@@H]3[C@@H]4C[C@@H]5C[C@H]3C[C@@](NC(C)=O)(C5)C4)cc2)c(=O)c2cccnc2n1-c1ccccc1 [Compound I-17, rel-3-[4-((1S,2S,3R,5S,7S)-5-Acetylamino-adamantan-2-ylcarbamoyl)-benzyl]-4-oxo-1-phenyl-1,4-dihydro-[1,8]naphthyridine-2-carboxylic acid methyl ester] | 26 | 3100
2 | COC(=O)c1c(Cc2ccc(C(=O)N[C@@H]3[C@@H]4C[C@@H]5C[C@H]3C[C@@](NS(=O)(=O)C3CC3)(C5)C4)cc2)c(=O)c2cccnc2n1-c1ccccc1 [Compound I-18, rel-3-[4-((1S,2S,3R,5S,7S)-5-Cyclopropanesulfonylamino-adamantan-2-ylcarbamoyl)-benzyl]-4-oxo-1-phenyl-1,4-dihydro-[1,8]naphthyridine-2-carboxylic acid methyl ester] | 5 | 1800
3 | COC(=O)c1c(Cc2ccc(C(=O)N[C@@H]3[C@@H]4C[C@@H]5C[C@H]3C[C@@](NS(C)(=O)=O)(C5)C4)cc2)c(=O)c2cccnc2n1-c1ccccc1 [Compound I-19, rel-3-[4-((1S,2S,3R,5S,7S)-5-Methanesulfonylamino-adamantan-2-ylcarbamoyl)-benzyl]-4-oxo-1-phenyl-1,4-dihydro-[1,8]naphthyridine-2-carboxylic acid methyl ester] | 11 | 2100
4 | COC(=O)c1c(Cc2ccc(C(=O)N[C@@H]3[C@@H]4C[C@@H]5C[C@H]3C[C@@](NC(=O)C(C)(C)C)(C5)C4)cc2)c(=O)c2cccnc2n1-c1ccccc1 [Compound I-20, rel-3-{4-[(1S,2S,3R,5S,7S)-5-(2,2-Dimethyl-propionylamino)-adamantan-2-ylcarbamoyl]-benzyl}-4-oxo-1-phenyl-1,4-dihydro-[1,8]naphthyridine-2-carboxylic acid methyl ester] | 39 | 5300
5 | COC(=O)c1c(Cc2ccc(C(=O)N[C@@H]3[C@@H]4C[C@@H]5C[C@H]3C[C@@](NC(=O)C(C)(C)OC(C)=O)(C5)C4)cc2)c(=O)c2cccnc2n1-c1ccccc1 [Compound I-21, rel-3-{4-[(1S,2S,3R,5S,7S)-5-(2-Acetoxy-2-methyl-propionylamino)-adamantan-2-ylcarbamoyl]-benzyl}-4-oxo-1-phenyl-1,4-dihydro-[1,8]naphthyridine-2-carboxylic acid methyl ester] | 25 | 4800
6 | COC(=O)c1c(Cc2ccc(C(=O)N[C@@H]3[C@@H]4C[C@@H]5C[C@H]3C[C@@](NC(=O)C(C)(C)O)(C5)C4)cc2)c(=O)c2cccnc2n1-c1ccccc1 [Compound I-22, rel-3-{4-[(1S,2S,3R,5S,7S)-5-(2-Hydroxy-2-methyl-propionylamino)-adamantan-2-ylcarbamoyl]-benzyl}-4-oxo-1-phenyl-1,4-dihydro-[1,8]naphthyridine-2-carboxylic acid methyl ester] | 22 | 4100
7 | COC(=O)c1c(Cc2ccc(C(=O)N[C@@H]3[C@@H]4C[C@@H]5C[C@H]3C[C@@](O)(C5)C4)cc2OC)c(=O)c2cccnc2n1-c1ccccc1 [Compound I-23, rel-3-[4-((1S,2S,3R,5S,7S)-5-Hydroxy-adamantan-2-ylcarbamoyl)-2-methoxy-benzyl]-4-oxo-1-phenyl-1,4-dihydro-[1,8]naphthyridine-2-carboxylic acid methyl ester] | 27 | 7800
8 | COC(=O)c1c(Cc2ccc(C(=O)N[C@@H]3[C@@H]4C[C@@H]5C[C@H]3C[C@@](O)(C5)C4)cc2F)c(=O)c2cccnc2n1-c1ccccc1 [Compound I-24, rel-3-[2-Fluoro-4-((1S,2S,3R,5S,7S)-5-hydroxy-adamantan-2-ylcarbamoyl)-benzyl]-4-oxo-1-phenyl-1,4-dihydro-[1,8]naphthyridine-2-carboxylic acid methyl ester] | 34 | 8600
